Measured values: US20180236109A1, “Pain Tracking by PET-imaging (Pain-TraP)” (Universitat zu Koln, priority 2015, published 2018)

Assays:
PSMA [1] = target: T1, PSMA (Mus musculus, UniProt O35409); assay: micro-PET tracer uptake in sciatic nerve lesion (SNI) model of neuropathic pain; format: in vivo, mice
T1 construct: from tissue; host or cells: C57BL/6 mouse, in vivo (hindpaw, thigh/sciatic nerve lesion site, sciatic nerve plexus)
Experimental: (§1) Experiments were performed in male 6- to 12-week-old C57BL/6 mice. Animals were housed on a 12/12 light/dark cycle with access to food and water ad libitum. All experiments adhered to the guidelines of the International Association for the Study of Pain and to the ARRIVE guidelines, and were approved by our local Ethics Committee for Animal Research.
Under isoflurane anesthesia, the tibial and common peroneal branches of the sciatic nerve were ligated and sectioned distally, while the sural nerve was left intact (Decosterd and Woolf, 2000); (Bourquin et al., 2006). Mechanical hypersensitivity at the lateral surface of the hindpaw (sural nerve skin area) was determined using a Dynamic Plantar Aesthesiometer as described above.
(§2) The animals were allowed to wake up in their home cage, where they remained for 50 min. Subsequently, mice were reanesthetized, killed to reduce the time of procedures on the living animal, and placed on a two-animal holder (Medres®). PET scans in list mode were performed using a Focus 220 micro PET scanner (CTI-Siemens®) with a resolution at center of field of view of 1.4 mm. Data acquisition started exactly one hour after [^18F]DCFPyL-injection and lasted […]. It was followed by a transmission scan using a ^57Co-point source for attenuation correction. Following Fourier rebinning, data were reconstructed using the iterative OSEM3D/MAP procedure (Qi et al., 1998) resulting in voxel sizes of 0.38×0.38×0.80 mm.
(§3) Four individual volumes of interest (VOIs, 24 mm^3 each) were drawn, two of which were placed over the left and right sciatic nerve plexus. The other two were positioned either over the sciatic nerve lesion in the thigh and the undamaged contra-lesional thigh (in case of SNI model), or over the hindpaws (in case of CFA model). […] The ratio of ipsi- and contralateral VOIs was calculated.
For each measurement a separate set of animals was used. […] To simplify the measurement methodology, animals were sacrificed instead of anaesthesized after 1 h and measured in a pPET. Images were analyzed for the section of maximal intensity at the site of injection, the respective areas quantified, and the ratio between ipsi- and contralateral side was calculated.
(§4) In the inflammatory pain model, “Complete Freunds Adjuvant (CFA)” was injected in the left hind paw, which leads to long-lasting inflammation and pain. To induce neuropathic pain in the “Spared nerve injury (SNI) model”, two branches of the sciatic nerve were ligated, while the third branch (the sural nerve) was left intact. In both models, pain sensitivity was measured using the Dynamic Plantar Test at the day before the PET scan. A movable force actuator was positioned below the plantar surface of the animal. A thin (0.5 mm) filament exerted increasing force, until the animal twitched its paw. The time it takes for the animal to retract its paw inversely reflects touch sensitivity.
(§5) On the next day, the PSMA tracer [^18F]DCFPyL was intravenously injected. After an uptake period of 60 min, an emission scan was performed for 30 min.

PSMA [2] = target: T1, PSMA; assay: micro-PET tracer uptake in Complete-Freund's-Adjuvant (CFA) model of inflammatory pain; format: in vivo, mice
Experimental: as §1
The mechanical sensitivity of the plantar side of a hindpaw was assessed with an automated testing device (dynamic plantar aesthesiometer; Ugo Basile). This device pushes a thin probe (0.5 mm diameter) with increasing force through a wire-grated floor against the plantar surface of the paw from beneath, and it automatically stops and records the latency time after which the animal withdraws the paw. The force increased from 0 to 5 g within 10 s (0.5 g/s ramp) and was then held at 5 g for an additional 10 s (Schmidtko et al., 2008a). The paw withdrawal latency was taken to be the mean of three consecutive trials with at least 10 s in between. After baseline measurements, 20 al of complete Freund's adjuvant (CFA; containing 1 mg/ml heat-killed Mycobacterium tuberculosis in paraffin oil 85% and mannide monooleate 15%; Sigma-Aldrich) was injected into the plantar subcutaneous space of a hindpaw, and paw withdrawal latencies were determined at the indicated timepoints after CFA injection (Schmidtko et al., 2008b).
as §2, §3
Each measurement was taken on a separate set of animals. […] To simplify the measurement methodology, animals were sacrificed instead of anaesthesized after 1 h and measured in a iPET. Images were analyzed for the section of maximal intensity at the site of injection, the respective areas quantified, and the ratio between ipsi- and contralateral side calculated.
as §4, §5

[3] = 10 MBq into tail vein, PET after 1 h
[4] = site of lesion, ipsi-/contralateral ratios, individual animals

T1 sequence (O35409 whole entry): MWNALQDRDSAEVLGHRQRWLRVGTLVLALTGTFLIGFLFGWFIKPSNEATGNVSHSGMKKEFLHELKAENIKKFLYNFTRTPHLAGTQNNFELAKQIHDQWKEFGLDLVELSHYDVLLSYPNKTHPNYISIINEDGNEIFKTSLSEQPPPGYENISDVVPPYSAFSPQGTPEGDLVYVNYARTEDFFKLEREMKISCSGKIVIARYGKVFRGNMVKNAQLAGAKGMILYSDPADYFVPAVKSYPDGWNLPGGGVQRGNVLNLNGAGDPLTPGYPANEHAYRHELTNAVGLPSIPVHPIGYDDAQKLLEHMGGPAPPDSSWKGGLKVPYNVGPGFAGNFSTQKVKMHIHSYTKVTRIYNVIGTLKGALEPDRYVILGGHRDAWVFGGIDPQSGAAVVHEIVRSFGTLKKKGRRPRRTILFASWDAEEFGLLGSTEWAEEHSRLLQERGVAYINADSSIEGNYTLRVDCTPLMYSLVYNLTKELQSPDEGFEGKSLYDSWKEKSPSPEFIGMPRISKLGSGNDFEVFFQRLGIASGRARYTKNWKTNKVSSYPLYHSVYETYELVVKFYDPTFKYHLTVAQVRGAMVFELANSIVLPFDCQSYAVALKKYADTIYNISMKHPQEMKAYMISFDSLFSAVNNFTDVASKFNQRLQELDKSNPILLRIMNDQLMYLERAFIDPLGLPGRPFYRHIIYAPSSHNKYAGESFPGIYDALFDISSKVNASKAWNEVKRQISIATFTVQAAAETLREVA

## O=C(O)CCC(NC(=O)NC(CCCCNC(=O)c1ccc([18F])nc1)C(=O)O)C(=O)O (stereo not shown) [[^18F]DCFPyL, 2-(3-{1-Carboxy-5-[(6-[18F]fluoro-pyridine-3-carbonyl)-amino]-pentyl}-ureido)-pen tanedioic acid]
PSMA [1]; 3, 7, and 14 days after surgery, FIG. 11B
  tracer uptake at the lesion site: significantly increased
PSMA [1]; [3]
  tracer uptake at the contralateral side: little to no
  tracer uptake in sham treated animals: little
PSMA [1]; 10 MBq into tail vein, PET after 1 h, sciatic nerve lesion
  tracer uptake at the site of injury: high and strong enrichment
PSMA [1]; average, FIG. 6
  quantification of the uptake, increase over sham-operated controls: 2-3 fold
PSMA [1]; neuropathic pain animals
  tracer enrichment along the nerve plexus: enrichment along the nerve toward the spinal cord
PSMA [1]; [4]
  correlation of tracer uptake with pain sensitivity: significantly correlated
PSMA [2]; 2, 7, and 14 days after CFA injection, FIG. 12B
  tracer uptake at the lesion site: significantly increased
PSMA [2]; 10 MBq into tail vein, PET after 1 h, contralateral paw
  tracer uptake at the contralateral side: little to no
PSMA [2]; 10 MBq into tail vein, PET after 1 h, injected hindpaw
  tracer uptake at the site of CFA injection: high
PSMA [2]; FIG. 3
  enrichment at the side of CFA injection, increase over the contra-lateral side: ~2 fold
PSMA [2]; average, ratio ipsi-/contralateral, FIG. 3
  quantification of the uptake, increase over controls: 2 fold
PSMA [2]; [4]
  correlation of tracer uptake with pain sensitivity: significantly correlated
